According to ChEMBL document CHEMBL2417489, “A structure-activity relationship study of 1,2,4-triazolo[1,5-a][1,3,5]triazin-5,7-dione and its 5-thioxo analogues on anti-thymidine phosphorylase and associated anti-angiogenic activities” (Eur J Med Chem, 2013):
The source made the active and inactive calls. The rule behind the calls is not given here.

Legend:
[1] = target: T1, Thymidine phosphorylase (Homo sapiens, UniProt P19971); test: Inhibition of human recombinant thymidine phosphorylase expressed in Escherichia coli using thymidine as substrate after 4 to 20 mins by spectrophotometry
T1 sequence (P19971 whole entry): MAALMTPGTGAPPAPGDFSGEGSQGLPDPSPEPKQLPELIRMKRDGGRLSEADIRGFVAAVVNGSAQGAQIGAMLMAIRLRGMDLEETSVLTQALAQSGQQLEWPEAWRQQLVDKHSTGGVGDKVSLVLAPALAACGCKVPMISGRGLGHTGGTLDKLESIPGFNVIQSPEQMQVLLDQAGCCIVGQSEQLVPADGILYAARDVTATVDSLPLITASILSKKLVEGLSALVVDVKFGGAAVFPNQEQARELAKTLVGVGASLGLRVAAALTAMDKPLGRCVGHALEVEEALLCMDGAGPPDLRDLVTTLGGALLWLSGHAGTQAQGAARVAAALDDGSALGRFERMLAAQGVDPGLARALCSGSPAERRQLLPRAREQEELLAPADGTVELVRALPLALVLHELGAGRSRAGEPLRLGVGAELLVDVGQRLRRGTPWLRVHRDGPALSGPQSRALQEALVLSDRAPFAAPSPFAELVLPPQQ

[2] = system: MDA-MB-231; conditions: Homo sapiens, 200 uM
Description: Antiangiogenic activity in human MDA-MB-231 cells assessed as inhibition of PMA-induced MMP-9 expression at 200 uM after 24 hrs by gelatine zymography relative to vehicle-treated control

[3] = system: MDA-MB-231; conditions: Homo sapiens, 100 to 200 uM
Description: Antiangiogenic activity in human MDA-MB-231 cells assessed as inhibition of PMA-induced MMP-9 expression at 100 to 200 uM after 24 hrs by densitometric analysis relative to vehicle-treated control

[4] = system: MDA-MB-231; conditions: Homo sapiens, 25 to 200 uM
Description: Antiangiogenic activity in human MDA-MB-231 cells assessed as inhibition of VEGF protein expression at 25 to 200 uM after 24 hrs by ELISA relative to vehicle-treated control

[5] = system: MDA-MB-231; conditions: Homo sapiens, 50 to 100 uM
Description: Antiangiogenic activity in human MDA-MB-231 cells assessed as inhibition of PMA-induced MMP-9 expression at 50 to 100 uM after 24 hrs by densitometric analysis relative to vehicle-treated control

SMILES | IC50 [1] | inhibition [2] | inhibition [3] | inhibition [4] | inhibition [5]
O=c1[nH]c(=O)n2nc(-c3ccccc3)nc2[nH]1 | > 100 µM | – | – | – | –
O=c1[nH]c(=O)n2nc(Cc3ccccc3)nc2[nH]1 | > 100 µM | – | – | – | –
Cc1cc(-c2nc3[nH]c(=S)[nH]c(=O)n3n2)ccc1Br | – | Active | Active | Active | –
O=c1[nH]c(=S)[nH]c2nc(Cc3ccc(Cl)c(Cl)c3)nn12 | – | Active | – | Active | inactive
O=c1[nH]c(=S)[nH]c2nc(-c3ccc(Cl)c(Cl)c3)nn12 | – | Active | Active | Active | –
